This is an account of results in patent US5137920A, “Method of treating fungal infections” (Hoffmann-La Roche Inc., priority 1989, dated 1992).

Data set [1] deals with T1, 2,3-epoxysqualene-lanosterol cyclase (Candida albicans, UniProt Q04782).
T1 construct: there was obtained a cell-free extract (CFE) as the supernatant; endogenous in cells; host or cells: Candida albicans culture (cell-free extract, 10000 g supernatant of ruptured protoplasts)
Put plainly: Inhibition of 2,3-epoxysqualene-lanosterol cyclase from Candida albicans (14C-squalene epoxide, cell-free extract). The class given is biochemical.

Data set [2] can be described thus: Acute toxicity in the case of subcutaneous administration to mice. Conditions: mouse, in vivo, sc. On the procedure: The IC50 values were determined graphically and are given in μg of test substance per ml. Table I contains IC50 values determined in the above test for representative members of the class of compound defined by formula I as well as data concerning the acute toxicity in the case of subcutaneous administration to mice (LD50 in mg/kg).

For a further data set, the system named is Candida albicans. Put plainly: Agar dilution method, application alone and in combination with ketoconazole (synergistic activity). The class given is cell-based. Conditions: for FIC (fractional inhibitory concentration): Compound 1 + ketoconazole, synergistic if <0.5; for MIC: Candida albicans, 48 h, casitone agar, 37° C., 2 days. Background: Agar dilution tests growth on a series of plates holding different concentrations.

The mark [3] stands for this setting: C. albicans cell-free extract, pH 6.9, 30°, 1 hour, read-out: IC50 (converted).

Counter-ions that a name gives are not always drawn. Like-named read-outs stand apart in the source and are kept apart here.

T1 sequence (Q04782 whole entry): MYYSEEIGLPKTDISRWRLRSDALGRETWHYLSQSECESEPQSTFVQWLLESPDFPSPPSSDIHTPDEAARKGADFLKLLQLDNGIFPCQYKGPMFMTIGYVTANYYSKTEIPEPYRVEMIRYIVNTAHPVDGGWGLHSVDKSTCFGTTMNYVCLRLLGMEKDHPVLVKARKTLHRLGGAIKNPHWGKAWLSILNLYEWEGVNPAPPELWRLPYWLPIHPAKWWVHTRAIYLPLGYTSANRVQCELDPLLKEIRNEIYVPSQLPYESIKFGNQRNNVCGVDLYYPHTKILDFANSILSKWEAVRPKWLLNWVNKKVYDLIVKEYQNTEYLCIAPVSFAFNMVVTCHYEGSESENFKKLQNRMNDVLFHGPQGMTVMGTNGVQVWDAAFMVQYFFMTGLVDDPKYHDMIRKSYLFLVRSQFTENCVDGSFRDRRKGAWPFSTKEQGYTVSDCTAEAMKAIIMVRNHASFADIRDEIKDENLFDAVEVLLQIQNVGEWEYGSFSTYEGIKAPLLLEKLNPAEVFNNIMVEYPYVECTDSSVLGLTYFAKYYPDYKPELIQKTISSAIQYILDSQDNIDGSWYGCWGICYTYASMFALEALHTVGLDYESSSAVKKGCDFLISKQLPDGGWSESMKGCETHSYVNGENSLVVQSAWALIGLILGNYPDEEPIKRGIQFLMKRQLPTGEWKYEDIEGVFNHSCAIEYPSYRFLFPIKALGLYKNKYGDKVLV

Usually IC50 stands for the concentration needed to halve the response being measured. In general, LD50 refers to the dose at which mortality reaches 50%. Low values mean greater toxicity, high ones lower toxicity. The term MIC denotes the smallest concentration in the dilution series that meets the test's criterion for growth inhibition. In data set [1], `CN(C)CCCCCCCc1ccc(C(=O)c2ccccc2)cc1` [Compound 1, 4-[7-(dimethylamino)heptyl]benzophenone] showed an IC50 of 0.526 µM. The same compound gave an LD50 in data set [2] of 312 to 625 mg/kg. The “FIC (fractional inhibitory concentration)” value with Candida albicans (C. albicans B4) was found to be 0.06; in the data set on Candida albicans (C. albicans B5) it was 0.53; with Candida albicans (C. albicans H12), 0.19; with Candida albicans (C. albicans H29), 0.19; in the data set with Candida albicans (C. albicans H42), 0.005. Also, the MIC in combination came to 1.2 µg/mL in the data set on Candida albicans (C. albicans B4, Compound 1 in combination with ketoconazole); 1.2 µg/mL in the data set on Candida albicans (C. albicans B5, Compound 1 in combination with ketoconazole); 2.5 µg/mL in the data set with Candida albicans (C. albicans H12, Compound 1 in combination with ketoconazole); 1.2 µg/mL in the data set with Candida albicans (C. albicans H29, Compound 1 in combination with ketoconazole); 1.2 µg/mL with Candida albicans (C. albicans H42, Compound 1 in combination with ketoconazole). Further, the MIC is 20 µg/mL in the data set with Candida albicans (C. albicans B4, Compound 1 alone); 20 µg/mL in the data set on Candida albicans (C. albicans B5, Compound 1 alone); 20 µg/mL in the data set on Candida albicans (C. albicans H12, Compound 1 alone); 10 µg/mL with Candida albicans (C. albicans H29, Compound 1 alone); 20 µg/mL with Candida albicans (C. albicans H42, Compound 1 alone). Also, the synergistic activity result in the data set on Candida albicans (in combination with ketoconazole, C. albicans) is given as “confirms the synergistic activity”.
For `CN(C)CCCCCCCc1ccc(C(=O)Cc2ccccc2)cc1` [Compound 2, 4'-[7-(dimethylamino)heptyl]-2-phenylacetophenone], in data set [1] (setting [3]), the IC50 is 1.42 µM.
Same read-out and setting: next, `CN(C)CCCCCCCc1ccc(C(=O)c2ccc(F)cc2)cc1` [Compound 3, 4'-fluoro-4-[7-(dimethylamino)heptyl]benzophenone]: 1.23 µM; `CN(C)CCCCCCCc1ccc(C(=O)c2ccc(C(F)(F)F)cc2)cc1` [Compound 4, 4-[7-(dimethylamino)heptyl]-4'-(trifluoromethyl)benzophenone]: 3.45 µM; `CN(C)CCCCCCCc1ccc(C(=O)c2ccc(F)cc2F)cc1` [Compound 5, 2,4-difluoro-4'-[7-(dimethylamino)heptyl]benzophenone]: 1.53 µM.
Regarding `CN(C)CCCc1ccc(C(=O)/C=C/c2ccc(Cl)cc2)cc1` [Compound 6, (E)-3-(4-chlorophenyl)-4'-[3-(dimethylamino)propyl]acrylophenone], the IC50 in data set [1] (setting [3]) is 3.66 µM.
On the same count and under the same terms, with `CN(C)CCCc1ccc(C(=O)CCc2ccc(Cl)cc2)cc1` [Compound 7, 3-(4-chlorophenyl)-4'-[3-(dimethylamino)propyl]propiophenone hydrochloride] the figure was 1.09 µM; with `CN(C)CCCc1ccc(C(=O)CCc2ccc(F)cc2)cc1` [Compound 8, 3-(4-fluorophenyl)-4'-[3-(dimethylamino)propyl]propiophenone], 1.75 µM.
On to `Cc1ccccc1CCC(=O)c1ccc(CCCN(C)C)cc1` [Compound 9, 3-(2-methylphenyl)-4'-[3-(dimethylamino)propyl]propiophenone], for which the IC50 in data set [1] (setting [3]) is 0.355 µM.
Turning to `CN(C)CCCc1ccc(C(=O)CCc2cccc(Cl)c2)cc1` [Compound 10, 3-(3-chlorophenyl)-4'-[3-(dimethylamino)propyl]propiophenone], in data set [1] (setting [3]), the IC50 is 1.33 µM.
With `CN(C)CCCc1ccc(C(=O)CCc2ccc([N+](=O)[O-])cc2)cc1` [Compound 11], the IC50 in data set [1] (setting [3]) is 0.823 µM.
Turning to `O=C(/C=C/c1ccccc1)c1ccc(CCCN2CCCC2)cc1` [Compound 12, (E)-3-phenyl-4'-[3-(1-pyrrolidinyl)propyl]acrylophenone], the IC50 in data set [1] (setting [3]) was 0.783 µM.
Still for that read-out and setting: with `O=C(CCc1ccccc1)c1ccc(CCCN2CCCC2)cc1` [Compound 13, 3-phenyl-4'-[3-(1-pyrrolidinyl)propyl]propiophenone] the figure was 1.24 µM; with `CN(C)CCCc1ccc(C(=O)c2ccccc2)cc1` [Compound 14], 18.7 µM; with `CN(C)CCCCCCCCc1ccc(C(=O)c2ccccc2)cc1` [Compound 15], 1.21 µM.
Same read-out and setting: next, `CN(C)CCCCCCCCc1ccc(C(=O)c2ccccc2)cc1` [Compound 16, 4-[8-(Dimethylamino)octyl]benzophenone]: 0.415 µM.
The same measure, in the same setting: next, `CN(C)CCCCCCCc1ccc(C(=O)c2ccc(Cl)cc2)cc1` [Compound 17, 4-chloro-4'-[7-(dimethylamino)heptyl]benzophenone]: 1.37 µM; `CN(C)CCCCCCCc1ccc(C(=O)c2ccc(Br)cc2)cc1` [Compound 18, 4-Bromo-4'-[7-(dimethylamino)heptyl]benzophenone]: 2.14 µM; `CN(C)CCCCCCCc1ccc(C(=O)c2ccc(Cl)cc2Cl)cc1` [Compound 19, 2,4-Dichloro-4'-[7-(dimethylamino)heptyl]benzophenone]: 1.91 µM.
Turning to `CN(C)CCCCCCCc1ccc(C(=O)c2ccc(C#N)cc2)cc1` [Compound 20], in data set [1] (setting [3]), the IC50 is 0.746 µM.
As to `C=CCN(C)CCCCCCCc1ccc(C(=O)c2ccccc2)cc1` [Compound 21, 4-[7-(Allylmethylamino)heptyl]benzophenone], the midpoint of inhibition in data set [1], the IC50, lay at 0.143 µM.
The compound `C=CCN(C)CCCCCCCc1ccc(C(=O)c2ccc(Br)cc2)cc1` [Compound 22, 4-[7-(Allylmethylamino)heptyl]-4'-bromobenzophenone] had an IC50 in data set [1] of 0.443 µM.
The compound `C=CCN(C)CCCCCCCc1ccc(C(=O)c2ccc(C#N)cc2)cc1` [Compound 23, 4-[4'-[7-(Allylmethylamino)heptyl]benzoyl]benzonitrile] had an IC50 in data set [1] of 0.16 µM.
With `C=CCN(C)CCCCCCc1ccc(C(=O)c2ccc(Br)cc2)cc1` [Compound 24, 4-[6-(Allylmethylamino)hexyl]-4'-bromobenzophenone], 0.229 µM corresponded to half-maximal inhibition in data set [1] (IC50). This compound also came in with an LD50 in data set [2] of 312 to 625 mg/kg.
On to `CN(C)CCCCCCc1ccc(C(=O)c2ccc(Br)cc2)cc1` [Compound 25, 4-Bromo-4'-[6-(dimethylamino)hexyl]benzophenone hydrochloride], for which the IC50 in data set [1] (setting [3]) was 2.17 µM.
Still for that read-out and setting: with `CN(C)CCCCCCc1ccc(C(=O)c2cccc(Br)c2)cc1` [Compound 26, 3-Bromo-4'-[6-(dimethylamino)hexyl]benzophenone] the figure was 1.08 µM; with `Cc1ccccc1C(=O)c1ccc(CCCCCCN(C)C)cc1` [Compound 27, 4-[6-(Dimethylamino)hexyl]-2'-methylbenzophenone], 0.495 µM; with `CN(C)CCCCCCc1ccc(C(=O)c2ccc([N+](=O)[O-])cc2)cc1` [Compound 28, 4-[6-(Dimethylamino)hexyl]-4'-nitrobenzophenone], 0.592 µM.
On to `CN(C)CCCCCCc1ccc(C(=O)c2ccccc2Cl)cc1` [Compound 29, 2-Chloro-4'-[6-(dimethylamino)hexyl]benzophenone], for which the IC50 in data set [1] (setting [3]) is 0.32 µM.
As to `CC(=O)N1CCN(c2ccc(OCC3COC(Cn4ccnc4)(c4ccc(Cl)cc4Cl)O3)cc2)CC1` (stereo not drawn) [Ketoconazole, reference compound], the MIC in combination was found to be 0.15 µg/mL with Candida albicans (C. albicans B4, Ketoconazole in combination with Compound 1); 0.075 µg/mL with Candida albicans (C. albicans B5, Ketoconazole in combination with Compound 1); 0.3 µg/mL in the data set on Candida albicans (C. albicans H12, Ketoconazole in combination with Compound 1); 0.075 µg/mL with Candida albicans (C. albicans H29, Ketoconazole in combination with Compound 1); 0.15 µg/mL in the data set on Candida albicans (C. albicans H42, Ketoconazole in combination with Compound 1). Also, the MIC with Candida albicans (C. albicans B4, Ketoconazole alone) is 2.5 µg/mL; in the data set on Candida albicans (C. albicans B5, Ketoconazole alone), 0.15 µg/mL; with Candida albicans (C. albicans H12, Ketoconazole alone), 5 µg/mL; in the data set on Candida albicans (C. albicans H29, Ketoconazole alone), 1.29 µg/mL; with Candida albicans (C. albicans H42, Ketoconazole alone), 5 µg/mL.
